Like-named read-outs stand apart in the source and are kept apart here.
Legend:
[1] = tested on: ZFL (hepatocytes) cell line; assay: cells; assay type: cell-based, zebrafish (Danio rerio); details: Danio rerio, Hepatocyte
[2] = tested on: diverse mammalian cell assay results; parameters: method as in https://comptox.epa.gov/dashboard/; details: COMPTOX; ref https://comptox.epa.gov/dashboard/; read-out: median AC50; cited from earlier work
[3] = tested on: ZF4 and ZFL cell lines; assay: Cytotoxicity assays, all endpoints, both cell lines (mean/range); assay type: cell-based, zebrafish (Danio rerio); details: 48 h, mean of all cytotoxicity endpoints (without LDH) in ZF4 and ZFL
[4] = tested on: ZFL (hepatocytes) cell line; assay: cells; assay type: cell-based, zebrafish (Danio rerio); details: Danio rerio, Hepatocyte; remark: listed apart in the source
[5] = ref Comptox, PubChem or DrugBank; cited from earlier work
[6] = tested on: ZFL (hepatocytes) cell line; assay: cells; assay type: cell-based, zebrafish (Danio rerio); details: Danio rerio, Hepatocyte; remark: listed apart in the source
[7] = tested on: zebrafish embryos; assay: animal or person; assay type: in vivo, zebrafish (Danio rerio); details: for EC50: Danio rerio
[8] = tested on: ZFL (hepatocytes) cell line; assay: cells; assay type: cell-based, zebrafish (Danio rerio); details: Danio rerio, Hepatocyte; remark: listed apart in the source
[9] = tested on: ZF4 (fibroblasts) cell line; assay: Neutral red, absorbance (NRa), AB/CFDA/NR multiplex, lysosome stability; assay type: cell-based, zebrafish (Danio rerio); details: Danio rerio, Fibroblast
[10] = tested on: ZF4 (fibroblasts) cell line; assay: ATP assay (ATP/LDH multiplex), ATP metabolism; assay type: cell-based, zebrafish (Danio rerio); details: Danio rerio, Fibroblast
[11] = tested on: ZF4 (fibroblasts) cell line; assay: Neutral red, fluorescence (NRf), AB/CFDA/NR multiplex, lysosome stability; assay type: cell-based, zebrafish (Danio rerio); details: Danio rerio, Fibroblast
[12] = tested on: ZF4 (fibroblasts) cell line; assay: CFDA endpoint of AB/CFDA/NR multiplex, membrane stability; assay type: cell-based, zebrafish (Danio rerio); details: Danio rerio, Fibroblast
[13] = tested on: zebrafish cell lines vs zebrafish embryo; assay: Potency ratios IC50;x/EC50;x (cytotoxicity assays vs mFET); parameters: species or system zebrafish (Danio rerio); details: median over cytotoxicity endpoints, nominal, 48 h cells / 48 hpf mFET
[14] = tested on: ZF4 (fibroblasts) cell line; assay: MTS assay (MTS/BCA multiplex), NAD(P)H metabolism; assay type: cell-based, zebrafish (Danio rerio); details: Danio rerio, Fibroblast
[15] = tested on: ZFL (hepatocytes) cell line; assay: cells; assay type: cell-based, zebrafish (Danio rerio); details: Danio rerio, Hepatocyte; remark: listed apart in the source
[16] = tested on: zebrafish embryos; parameters: method as in earlier work; details: nominal, cited from earlier work
[17] = tested on: ZF4 (fibroblasts) cell line; assay: alamarBlue (AB) endpoint of AB/CFDA/NR multiplex, cellular respiration; assay type: cell-based, zebrafish (Danio rerio); details: Danio rerio, Fibroblast
[18] = tested on: ZF4 (fibroblasts) cell line; assay: BCA assay (MTS/BCA multiplex), protein amount; assay type: cell-based, zebrafish (Danio rerio); details: Danio rerio, Fibroblast
[19] = tested on: ZFL (hepatocytes) cell line; assay: cells; assay type: cell-based, zebrafish (Danio rerio); details: Danio rerio, Hepatocyte; remark: listed apart in the source
[20] = tested on: ZFL (hepatocytes) cell line; assay: cells; assay type: cell-based, zebrafish (Danio rerio); details: Danio rerio, Hepatocyte; remark: listed apart in the source

## CO[C@H]1C[C@H](O[C@H]2[C@H](C)O[C@@H](O[C@@H]3/C(C)=C/C[C@@H]4C[C@@H](C[C@]5(C=C[C@H](C)[C@@H](C6CCCCC6)O5)O4)OC(=O)[C@@H]4C=C(C)[C@@H](O)[C@H]5OC/C(=C\C=C\[C@@H]3C)[C@]54O)C[C@@H]2OC)O[C@@H](C)[C@@H]1O [Doramectin, doramectin]
[1]; NR-fluo - ZFL, log10 of IC50, read-out: LogIC50 (converted)
  IC50: 5.08 µM
[1]; NR-fluo - ZFL, read-out: IC50
  IC50: 5.08 µM
[1]; ZFL, 48 h exposure, nominal, log10, read-out: logIC50 (log10 IC50;nom) NRf (converted)
  IC50: 5.13 µM
[1]; ZFL, 48 h exposure, nominal, read-out: IC50;nom NRf
  IC50: 5.08 µM
[2]
  AC50: 1.87 µM
[3]; Danio rerio, log10, read-out: Mean log IC50nom (converted)
  IC50: 9.12 µM
[3]; log10, listed as Dor
  Mean log IC50nom: -5.037 M
[4]; BCA - ZFL, log10 of IC50, read-out: LogIC50 (converted)
  IC50: 4.44 µM
[4]; BCA - ZFL, read-out: IC50
  IC50: 4.44 µM
[4]; ZFL, 48 h exposure, nominal, log10, read-out: logIC50 (log10 IC50;nom) BCA (converted)
  IC50: 4.47 µM
[4]; ZFL, 48 h exposure, nominal, read-out: IC50;nom BCA
  IC50: 4.44 µM
[5]
  BCF: 5.26
  Physiological charge: 0
  logKoa: 9.63
  logKow: 5.24
  pKa (Strongest Acidic): 12.47
  pKa (Strongest Basic): -3.4
  w_solubility (water solubility): 39.5 µM
[6]; NR-abs - ZFL, log10 of IC50, read-out: LogIC50 (converted)
  IC50: 4.52 µM
[6]; NR-abs - ZFL, read-out: IC50
  IC50: 4.52 µM
[6]; ZFL, 48 h exposure, nominal, log10, read-out: logIC50 (log10 IC50;nom) NRa (converted)
  IC50: 4.57 µM
[6]; ZFL, 48 h exposure, nominal, read-out: IC50;nom NRa
  IC50: 4.52 µM
[7]; 48 hpf time point less sensitive than 144 hpf
  difference in toxicity (EC50;nom) between 48 hpf and 144 hpf: marginally more toxic
[7]; 48 hpf, nominal, log10, listed as Dor
  log EC50;nom (mFET): -5.914 M
[7]; 48 hpf, nominal, log10, read-out: log EC50;nom (mFET) (converted)
  EC50: 1.23 µM
[7]; 48 hpf, nominal, read-out: EC50;nom (embryo)
  EC50: 1.1 µg/mL
[7]; read-out: EC50 48hpf
  EC50: 1.22 µM
[7]; read-out: EC50;nom (mFET)
  EC50: 1.22 µM
[8]; AB - ZFL, log10 of IC50, read-out: LogIC50 (converted)
  IC50: 6.74 µM
[8]; AB - ZFL, read-out: IC50
  IC50: 6.74 µM
[8]; ZFL, 48 h exposure, nominal, log10, read-out: logIC50 (log10 IC50;nom) AB (converted)
  IC50: 6.76 µM
[8]; ZFL, 48 h exposure, nominal, read-out: IC50;nom AB
  IC50: 6.74 µM
[9]; NR-abs - ZF4, log10 of IC50, read-out: LogIC50 (converted)
  IC50: 14.6 µM
[9]; NR-abs - ZF4, read-out: IC50
  IC50: 14.6 µM
[9]; ZF4, 48 h exposure, nominal, log10, read-out: logIC50 (log10 IC50;nom) NRa (converted)
  IC50: 14.5 µM
[9]; ZF4, 48 h exposure, nominal, read-out: IC50;nom NRa
  IC50: 14.6 µM
[9]; ZF4 cell line, NRa endpoint, nominal, read-out: IC50;nom
  IC50: 13.1 µg/mL
[10]; ATP - ZF4, log10 of IC50, read-out: LogIC50 (converted)
  IC50: 4.38 µM
[10]; ATP - ZF4, read-out: IC50
  IC50: 4.38 µM
[10]; ZF4, 48 h exposure, nominal, log10, read-out: logIC50 (log10 IC50;nom) ATP (converted)
  IC50: 4.37 µM
[10]; ZF4, 48 h exposure, nominal, read-out: IC50;nom ATP
  IC50: 4.38 µM
[11]; NR-fluo - ZF4, log10 of IC50, read-out: LogIC50 (converted)
  IC50: 15.3 µM
[11]; NR-fluo - ZF4, read-out: IC50
  IC50: 15.3 µM
[11]; ZF4, 48 h exposure, nominal, log10, read-out: logIC50 (log10 IC50;nom) NRf (converted)
  IC50: 15.5 µM
[11]; ZF4, 48 h exposure, nominal, read-out: IC50;nom NRf
  IC50: 15.3 µM
[12]; CFDA - ZF4, log10 of IC50, read-out: LogIC50 (converted)
  IC50: 16.8 µM
[12]; CFDA - ZF4, read-out: IC50
  IC50: 16.8 µM
[12]; ZF4, 48 h exposure, nominal, log10, read-out: logIC50 (log10 IC50;nom) CFDA (converted)
  IC50: 17 µM
[12]; ZF4, 48 h exposure, nominal, read-out: IC50;nom CFDA
  IC50: 16.8 µM
[13]
  potency ratio IC50;nom/EC50;nom (median): 7.68
[14]; MTS - ZF4, log10 of IC50, read-out: LogIC50 (converted)
  IC50: 12.3 µM
[14]; MTS - ZF4, read-out: IC50
  IC50: 12.3 µM
[14]; ZF4, 48 h exposure, nominal, log10, read-out: logIC50 (log10 IC50;nom) MTS (converted)
  IC50: 12.3 µM
[14]; ZF4, 48 h exposure, nominal, read-out: IC50;nom MTS
  IC50: 12.3 µM
[15]; CFDA - ZFL, log10 of IC50, read-out: LogIC50 (converted)
  IC50: 9.33 µM
[15]; CFDA - ZFL, read-out: IC50
  IC50: 9.33 µM
[15]; ZFL, 48 h exposure, nominal, log10, read-out: logIC50 (log10 IC50;nom) CFDA (converted)
  IC50: 9.33 µM
[15]; ZFL, 48 h exposure, nominal, read-out: IC50;nom CFDA
  IC50: 9.33 µM
[16]; 144 hpf, converted
  EC50: 0.645 µM
[16]; log10
  logEC50 144 hpf: -6.19 M
[17]; AB - ZF4, log10 of IC50, read-out: LogIC50 (converted)
  IC50: 17.1 µM
[17]; AB - ZF4, read-out: IC50
  IC50: 17.1 µM
[17]; ZF4, 48 h exposure, nominal, log10, read-out: logIC50 (log10 IC50;nom) AB (converted)
  IC50: 17 µM
[17]; ZF4, 48 h exposure, nominal, read-out: IC50;nom AB
  IC50: 17.1 µM
[18]; BCA - ZF4, log10 of IC50, read-out: LogIC50 (converted)
  IC50: 9.03 µM
[18]; BCA - ZF4, read-out: IC50
  IC50: 9.03 µM
[18]; ZF4, 48 h exposure, nominal, log10, read-out: logIC50 (log10 IC50;nom) BCA (converted)
  IC50: 9.12 µM
[18]; ZF4, 48 h exposure, nominal, read-out: IC50;nom BCA
  IC50: 9.03 µM
[19]; ATP - ZFL, log10 of IC50, read-out: LogIC50 (converted)
  IC50: 15.9 µM
[19]; ATP - ZFL, read-out: IC50
  IC50: 15.9 µM
[19]; ZFL, 48 h exposure, nominal, log10, read-out: logIC50 (log10 IC50;nom) ATP (converted)
  IC50: 15.8 µM
[19]; ZFL, 48 h exposure, nominal, read-out: IC50;nom ATP
  IC50: 15.9 µM
[20]; MTS - ZFL, log10 of IC50, read-out: LogIC50 (converted)
  IC50: 9.41 µM
[20]; MTS - ZFL, read-out: IC50
  IC50: 9.42 µM
[20]; ZFL, 48 h exposure, nominal, log10, read-out: logIC50 (log10 IC50;nom) MTS (converted)
  IC50: 9.33 µM
[20]; ZFL, 48 h exposure, nominal, read-out: IC50;nom MTS
  IC50: 9.42 µM
